Source: PMC6123382, “Phosphorylation of the Amyloid-Beta Peptide Inhibits Zinc-Dependent Aggregation, Prevents Na,K-ATPase Inhibition, and Reduces Cerebral Plaque Deposition” (Frontiers in Molecular Neuroscience, 2018)
Where no end group is shown, it is not given here.

What was measured:
[1] = molecular target: Na^+/K^+-ATPase (α1β1 isozyme) (Anas platyrhynchos, UniProt Q6TG02+Q7ZYV1); assay: Isothermal titration calorimetry of binding to Na+/K+-ATPase; design: species or system duck (salt glands); settings: ITC, 25°C
Protocol: The purified preparation of Na^+/K^+-ATPase (α1β1 isozyme) was obtained from duck salt glands as described elsewhere ([Petrushanko et al., 2016]).
The thermodynamic parameters of amyloid peptides binding to Na^+/K^+-ATPase were measured using a MicroCal iTC200 instrument, as described elsewhere ([Mitkevich et al., 2012]; [Petrushanko et al., 2014]). Experiments were carried out at 25°C in 10 mM imidazole buffer (pH 7.5), containing 130 mM NaCl, 30 mM KCl, 3 mM MgCl2. Aliquots (2.6 μl) of ligands were injected into a 0.2-ml cell containing protein solution to achieve a complete binding isotherm. Protein concentration in the cell ranged from 10 to 20 μM, and ligand concentration in the syringe ranged from 100 to 200 μM. The resulting titration curves were fitted using the MicroCal Origin software, assuming one set of binding sites. Affinity constants (Ka), enthalpy variations (ΔH) and stoichiometry of binding (N) were determined and the Gibbs energy (ΔG) and entropy variations (ΔS) were calculated from the equation: ΔG = −RTlnKa = ΔH-TΔS.

[2] = cited from earlier work
Text: Recently, it has been shown that Aβ undergoes phosphorylation at Ser8 both in vitro and in vivo ([Kumar et al., 2011], [2013]). […] Recently, pS8-Aβ was obtained in vitro by Aβ phosphorylation with protein kinase A and was subsequently identified in vivo ([Kumar et al., 2011], [2013]). Based on the oligomeric state of pS8-Aβ derived from brain tissue of A ...

[3] = molecular target: Na+/K+-ATPase (α1β1 isozyme) from duck salt glands (duck); assay: ITC; peptide (100-200 μM, syringe) injected into Na+/K+-ATPase (10-20 μM, cell); 25°C; 10 mM imidazole pH 7.5, 130 mM NaCl, 30 mM KCl, 3 mM MgCl2; fit with one set of binding sites
[4] = 10 mM imidazole buffer (pH 7.5), 130 mM NaCl, 30 mM KCl, 3 mM MgCl2
[5] = pH 7.5, calculated from ΔG = −RTlnKa = ΔH-TΔS

With LVFFAEDVGSNKGAIIGLMVGGVVIA [Aβ17–42] the “detectability of binding to Na+,K+-ATPase” value [1, 4] was “Binding was detectable”, the ΔH [1, 4] was -9.5 kJ/mol and the Ka ([1]; 10 mM imidazole buffer (pH 7.5), 130 mM NaCl, 30 mM KCl, 3 mM MgCl2, one set of binding sites) was 260000 M⁻¹. For the same substance, the TΔS [1, 5] was 21.5 kJ/mol and the ΔG [1, 5] was -31 kJ/mol.
In the case of “pS8-Aβ40: Aβ40 phosphorylated at Ser8 (literature)”, the aggregation in vitro ([2]; absence of divalent cations, ref Kumar et al. (2011)) is given as “accelerated aggregation”.
For “pS8-Aβ: phosphorylated Ser8-containing β-amyloid peptide (length not stated, literature)”, the “aggregation in absence of zinc ions” value ([2]; in vitro, absence of zinc ions, ref Rezaei-Ghaleh et al., 2016, Jamasbi et al., 2017) is listed as “fast-aggregating peptide species”.
In the case of “β-amyloid peptide 17–42 (Aβ17-42), C-terminal hydrophobic fragment”, the Ka [3] is reported as 260000 M⁻¹, the Kd [3] is reported as 3.8 µM and the dH [3] is reported as -9.5 kJ/mol.
